Source: the NIST ThermoML archive (doi:10.1016/j.jct.2013.05.003)
Numbers after ± are expanded uncertainties.

Tests used:
[1] = 101.3 kPa, Liquid, Sing-around technique in a fixed-path interferometer
[2] = xn = mol fraction of the nth substance listed; conditions: 283.15 K; 101.3 kPa; Liquid; fixed-path interferometer; x2 = 0

Row | speed of sound ([1]; 283.15 K) | speed of sound ([1]; 288.15 K) | speed of sound ([1]; 293.15 K) | speed of sound ([1]; 298.15 K) | speed of sound ([1]; 303.15 K) | speed of sound [2] | SMILES
1 | 1386.4 ± 1.6 m/s | 1364.2 ± 1.6 m/s | 1342 ± 1.6 m/s | 1321.2 ± 1.6 m/s | 1300.4 ± 1.6 m/s | – | CCOCCCN [3-ethoxy-1-propanamine]
2 | – | – | – | – | – | 1447.3 ± 1.3 m/s | O [water] + CCOCCCN
3 | 1447.3 ± 1.3 m/s | – | – | – | – | – | O [water]
